What was measured:
[1] = tested on: CD4+T and CD8+T lymphocytes; test: Number of CD4+T and CD8+T cells (immunofluorescence), drug-resistant B16 melanoma transplanted tumor; assay type: in vivo; settings: transplanted tumor of drug-resistant B16 melanoma in mice, average of 6 high power fields
Experimental: (§1) The number of CD4+T and CD8+T lymphocytes was analyzed by immunofluorescence staining, and the average number of CD4+T and CD8+T cells infiltrated in 6 high power fields was counted.

[2] = tested on: CD4+T and CD8+T lymphocytes; test: Number of CD4+T and CD8+T cells in Opdivo-resistant B16 melanoma mice; assay type: in vivo; settings: drug-resistant (Opdivo) B16 melanoma mice, average of 6 high power fields
Experimental: as §1

PD-1/PD-L1 [3] = test: PD-1/PD-L1 expression rate in tumor tissues of Opdivo-resistant Lewis lung cancer mice; assay type: in vivo; settings: tumor tissues of drug-resistant (Opdivo) Lewis lung cancer mice
Description: (§2) The positive expression rate of PD-1/PD-L1 in tumor tissues was detected by immunohistochemical SP method.

PD-1/PD-L1 [4] = test: PD-1/PD-L1 expression rate (immunohistochemical SP method), drug-resistant B16 melanoma tumor tissue; assay type: in vivo; settings: transplanted tumor tissues of drug-resistant B16 melanoma in mice, Example 3 regimen
Description: as §2

[5] = tested on: drug-resistant A375 melanoma cell lines; test: MTT: non-cytotoxic concentration of test drugs, drug-resistant A375; assay type: cell-based, human; settings: 48 h
Experimental: The culture and treatment methods of cells and drug-resistant cells were the same as above.
(§3) For the experiment, there were eight groups: blank group, control group and test-drug groups. […] The plates were placed in an incubator and incubated for 48 h, then 5 mg/ml MTT (20 μl) was added to each well, and the plate was further incubated for 4 h.

[6] = tested on: drug-resistant A549 lung cancer cell lines; test: MTT: non-cytotoxic concentration of test drugs, drug-resistant A549; assay type: cell-based, human; settings: 48 h
Experimental: as §3, with “The culture and treatment methods of cells and drug-resistant cells were the same as above. For” for “For”

[7] = tested on: multi-drug resistant Lewis lung cancer; test: Tumor weight and inhibition rate, transplanted multi-drug resistant Lewis lung cancer; assay type: in vivo, mice; settings: multi-drug resistant Lewis lung cancer mice; test drug 30 mg/kg i.p. 5 days, then gemcitabine 300 mg/kg or dacarbazine 60 mg/kg every other day
Experimental: Lewis lung cancer cell lines were induced by the increased gradient concentration of dacarbazine and gemcitabine, and established by clone screening, then cultured without drug before the experiment.
(§4) After the drug was removed from the drug-resistant cell lines, the cell concentration was adjusted to 1×10^7/ml with the culture medium. 1×10^7/ml of cells were subcutaneously injected into the right armpit of mice, 0.1 ml per mouse.
(§5) After the average diameter of tumor reached […], the mice were randomly divided into test drug group 1, test drug group 2, test drug group 3, test drug group 4, test drug group 5, test drug group 6, positive drug group, and negative group, respectively.
(§6) Test drug group: the test drug group was first intraperitoneally injected, once a day, 30 mg/kg/time, for 5 consecutive days; administration was stopped, and the positive drug was given by intraperitoneal injection on the next day; wherein the positive drug dacarbazine was administrated once every other day, 60 mg/kg/time; wherein the positive drug gemcitabine was given once every other day, 300 mg/kg/time.
(§7) Positive drug group: positive drug dacarbazine was given once every other day, 60 mg/kg/time; positive drug gemcitabine was given once every other day, 300 mg/kg/time.
(§8) Negative group: normal saline was intraperitoneally injected, once a day, for 15 consecutive days.
(§9) After completion of administration, the experiment was stopped, and the mice were killed by cervical dislocation and weighed. The tumor was stripped and weighed, to calculate the tumor inhibition rate.

[8] = tested on: dacarbazine-resistant B16 melanoma; test: Tumor weight and inhibition rate, transplanted dacarbazine-resistant B16 melanoma; assay type: in vivo; settings: dacarbazine-resistant B16 melanoma mice; test drug 30 mg/kg i.p. once a day 5 days, then dacarbazine 60 mg/kg every other day; positive drug dacarbazine 60 mg/kg
Experimental: B16 melanoma cell lines were induced by the increased gradient concentration of dacarbazine, and established by clone screening and cultured without drug before the experiment.
as §4, §5, §6, §7, §8, §9

[9] = tested on: Opdivo-resistant Lewis lung cancer; test: Antitumor effect (tumor volume, weight, inhibition rate) in Opdivo-resistant Lewis lung cancer mice; assay type: in vivo; settings: for Tumor volume (cm^3): 30 mg/kg i.p. once a day, + Opdivo groups: test drug 5 days, then Opdivo 30 mg/kg every other day; for Tumor inhibition rate (%) / Tumor weight: 30 mg/kg i.p., + Opdivo groups 30 + 30 mg/kg
Experimental: (§10) The concentration of cell lines was adjusted to 1×10^7/ml with the culture medium. 1×10^7/ml of cells were subcutaneously injected into the right armpit of mice, 0.1 ml per mouse.
(§11) The model mice were randomly divided into groups, eight for one group, and included test drug group 1, test drug group 2, test drug group 3, test drug group 4, positive drug Opdivo group, single drug chlorogenic acid group, test drug 1+Opdivo group, test drug 2+Opdivo group, test drug 3+Opdivo group, test drug 4+Opdivo group, and negative group, respectively.
(§12) Test drug group: from the second day after stopping administration to the model, the group received drug by intraperitoneal injection, once a day, 30 mg/kg.
(§13) Single drug group: from the second day after stopping administration to the model, the group received drug by intraperitoneal injection, once a day, 30 mg/kg.
(§14) Test drug+Opdivo group: from the second day after stopping administration to the model, the group received the test drug by intraperitoneal injection, once a day, and the test drug was stopped after administrating for 5 consecutive days; on the next day, Opdivo was intraperitoneally injected, once every other day, with the dosage of 30 mg/kg.
(§15) Positive drug group: once every other day, 30 mg/kg.
(§16) Negative group: normal saline was intraperitoneally injected, once a day, the same amount of saline.
(§17) Before each administration, the tumor volume was measured, and the experiment was stopped when the average tumor volume of negative group was greater than 1.5 cm^3.
as §9

[10] = tested on: CD4+T and CD8+T lymphocytes; test: Number of CD4+T and CD8+T cells (immunofluorescence), drug-resistant Lewis lung cancer transplanted tumor; assay type: in vivo; settings: transplanted tumor of drug-resistant Lewis lung cancer in mice, average of 6 high power fields
Experimental: as §1

PD-1/PD-L1 [11] = test: PD-1/PD-L1 expression rate in tumor tissues of Opdivo-resistant B16 melanoma mice; assay type: in vivo; settings: tumor tissues of drug-resistant (Opdivo) B16 melanoma mice
Description: as §2

[12] = tested on: CD4+T and CD8+T lymphocytes; test: Number of CD4+T and CD8+T lymphocytes in transplanted tumor of multidrug-resistant Lewis lung cancer mice; assay type: in vivo; settings: average of 6 high power fields
Experimental: as §1

[13] = tested on: Opdivo-resistant B16 melanoma; test: Antitumor effect (tumor volume, weight, inhibition rate) in Opdivo-resistant B16 melanoma mice; assay type: in vivo; settings: for Tumor volume (cm^3): 30 mg/kg i.p. once a day, + Opdivo groups: test drug 5 days, then Opdivo 30 mg/kg every other day; for Tumor inhition rate (%) / Tumor weight: 30 mg/kg i.p., + Opdivo groups 30 + 30 mg/kg
Experimental: as §10, §11, §12, §13, §14, §15, §16, §17, §9

[14] = tested on: CD4+T and CD8+T lymphocytes; test: Number of CD4+T and CD8+T cells in Opdivo-resistant Lewis lung cancer mice; assay type: in vivo; settings: drug-resistant (Opdivo) Lewis lung cancer mice, average of 6 high power fields
Experimental: as §1

[15] = tested on: gemcitabine-resistant Lewis lung cancer; test: Tumor weight and inhibition rate, transplanted gemcitabine-resistant Lewis lung cancer; assay type: in vivo; settings: gemcitabine-resistant Lewis lung cancer mice; test drug 30 mg/kg i.p. once a day 5 days, then gemcitabine 300 mg/kg every other day; positive drug gemcitabine 300 mg/kg
Experimental: Lewis lung cancer cell lines were induced by the increased gradient concentration of gemcitabine, and established by clone screening and cultured without drug before the experiment.
as §4, §5, §6, §7, §8, §9

Row | Structure (SMILES) | CD4 + T cells (number) [1] | CD8 + T cells (number) [1] | CD4 + T cells (number) [2] | CD8 + T cells (number) [2] | Expression rate of PD-1/PD-L1, Positive PD-L1 (PD-1/PD-L1 [3]) [%] | Expression rate of PD-1/PD-L1, Positive PD-L1 (PD-1/PD-L1 [4]) [%] | Non-cytotoxic concentration (all inhibition rates <10%) [5] [µg/mL] | Non-cytotoxic concentration (all inhibition rates <10%) [6] [µg/mL] | Tumor weight [7] [g] | Tumor-inhibition rate (%) [7] [%] | Tumor inhibition rate (%) [8] [%] | Tumor volume (cm^3) [9] [cm^3] | Tumor inhibition rate (%) [9] [%] | Tumor weight [9] [g] | CD4 + T cells (number) [10] | CD8 + T cells (number) [10] | Expression rate of PD-1/PD-L1, Positive PD-L1 (PD-1/PD-L1 [11]) [%] | CD4 + T cells (number) [12] | CD8 + T cells (number) [12] | Tumor volume (cm^3) [13] [cm^3] | also measured
1 | O=C(/C=C/c1ccc(O)c(O)c1)O[C@@H]1C[C@](O)(C(=O)O)C[C@@H](O)[C@H]1O [Chlorogenic acid, chlorogenic acid] | 69.43 ± 4.72 | 88.62 ± 5.38 | 74.63 ± 6.35 | 89.42 ± 2.52 | 70.36 | 72.26 | 830 | 1256 | 1.92 ± 0.69 | 18.64 | 19.32 | 1.592 ± 0.704 | 3.18 | 2.46 ± 0.72 | 80.63 ± 5.08 | 106.62 ± 6.88 | 83.41 | 79.24 ± 4.06 | 126.52 ± 11.85 | 1.788 ± 0.539 | Tumor weight (g) [8]: 2.13 ± 0.52*Δ g; continuous treatment effect / effect on tumor volume control (in words) [9]: not obvious; continuous treatment effect / effect on tumor volume control (in words) [13]: not obvious; Tumor inhition rate (%) [13]: 3.18%; Tumor weight [13]: 2.74 ± 0.59 g; CD4 + T cells (number) [14]: 66.52 ± 4.63; CD8 + T cells (number) [14]: 119.38 ± 6.55; Tumor inhibitory rate (%) [15]: 10.48%; Tumor weight (g) [15]: 2.05 ± 0.79 ^ g
2 | O=C(/C=C/c1ccc(O)cc1)O[C@@H]1C[C@](O)(C(=O)O)C[C@@H](O)[C@H]1O [Coumaroylquinic acid, coumaroylquinic acid] | 62.83 ± 7.51 | 91.53 ± 3.54 | 75.09 ± 5.23 | 88.26 ± 5.36 | 71.89 | 73.39 | 862 | 1142 | 2.15 ± 0.72 | 8.90 | 15.91 | 1.584 ± 0.424 | 3.88 | 2.48 ± 0.55 | 78.75 ± 6.39 | 98.53 ± 4.98 | 82.87 | 79.11 ± 5.36 | 122.08 ± 14.36 | 1.762 ± 0.947 | Tumor weight [8]: 2.22 ± 0.26 g; Tumor inhition rate (%) [13]: 4.24%; Tumor weight [13]: 2.71 ± 0.46 g; CD4 + T cells (number) [14]: 65.12 ± 5.17; CD8 + T cells (number) [14]: 113.64 ± 8.23; Tumor inhibitory rate (%) [15]: 5.68%; Tumor weight (g) [15]: 2.16 ± 0.41 ^ g
